Experimental data reported in patent US20250082733A1, “m6A mRNA MODIFICATION IN CANCER TREATMENT” (CITY OF HOPE, priority 2017, published 2025).

Columns and labels:
mRNA m^6A level in GSCs = test: m6A mRNA dot blot of GSCs treated with MA2; type: cell-based, human; details: 50 μM MA2, 48 h, vs vehicle control
Method: m^6A dot blot assay: GSCs were either maintained in sphere cultures or induced into differentiation for 1 week using 0.5% fetal bovine serum (Sigma) together with 1 μM all-trans retinoic acid (Sigma). Total RNAs were isolated from these GSCs using Trizol reagent (Ambion). GSCs were transduced with lentivirus expressing METTL3 or METTL14 shRNA or METTL3 cDNA. Seven days after transduction, total RNAs were extracted. mRNAs were prepared from total RNAs using Dynabeads® mRNA purification kit (Ambion, Catalog #61006). Indicated amount of mRNAs was used for dot blot analysis using an antibody specific for m^6A (1:1,000; Synaptic Systems; Catalog #202003). The intensity of dot blot signal was quantified by Image J.
(§1) Treatment of GSCs with the FTO inhibitor MA2: GSCs were seeded at 5×10^4 cells per well in 48-well plates and cultured overnight. These cells were treated with MA2, a chemical inhibitor of FTO (Huang et al., 2015) at 20, 40, 60, 80 μM or vehicle control and cultured for 48 h. Cell number was counted using a hemocytometer. To determine the effect of MA2 on the level of m^6A RNA modification, GSCs were treated with 50 μM MA2 for 48 h. mRNAs were prepared and subjected to m^6A dot blot assay. To test the effect of MA2 in limiting dilution assay, GSCs were treated at 40 μM or vehicle control for two weeks.

PBT003 cells [1] = test: Cell growth assay, MA2-treated GSCs (PBT003); type: cell-based, human; details: PBT003, 60 μM and 80 μM, 48 h
Method: as §1

PBT707 = test: Cell growth assay, MA2-treated GSCs (PBT707); type: cell-based, human; details: 48 h
Method: as §1

PBT726 = test: Cell growth assay, MA2-treated GSCs (PBT726); type: cell-based, human; details: 48 h
Method: as §1

PBT111 = test: Cell growth assay, MA2-treated GSCs (PBT111); type: cell-based, human; details: 48 h
Method: as §1

[2] = test system: normal neural stem cells (NSC) line NSC006; test: Cell growth assay, control cells (NSC006); type: cell-based
brain astrocytes = test: Cell growth assay, control cells (astrocytes); type: cell-based
HeLa cells = test: Cell growth assay, control cells (HeLa); type: cell-based
GSCs [3] = test: Limiting dilution assay of GSCs treated with MA2; type: cell-based, human; details: 40 μM, two weeks, vs control cells
Method: Limiting dilution assay: GSCs were transduced with relevant shRNA or METTL3-expressing lentivirus. The transduced GSCs were seeded at 1, 5, 10, 20, 50 and 100 cells per well into 96-well plates. The number of neurospheres in each well was counted two weeks after seeding cells. Extreme limiting dilution analysis was performed using software available at http://bioinf.wehi.edu.au/software/elda.
as §1

GSCs [4] = test: Sphere formation assay of METTL3 or METTL14 KD GSCs with MA2; type: cell-based, human; details: together with MA2
Method: Sphere formation assay: The sphere formation assay was performed as previously described (Cui et al., 2016). Briefly, three days after viral transduction, the transduced cells were seeded at 1 cell per well in 96-well plates (for those associated with the limiting dilution assay) or 100 cells per well in 48-well plates and cultured for 2 weeks. The sphere number was counted under microscope. The sphere formation rate was defined as the percentage of sphere-forming cells out of the number of starting cells.

PBT003 cells [5] = test: Intratumoral MA2 in PBT003-grafted NSG mice; type: in vivo; details: vs vehicle control
Method: Introcranial delivery of the FTO inhibitor MA2: PBT003 cells (2×10^5) transduced with luciferase expressing lentivirus were intracranially transplanted into the frontal lobe of NSG mice at the same coordinates as described above. One week after transplantation, tumors were detected by bioluminescence imaging and mice were treated with MA2 (5 μl of 600 μM MA2 in 1% DMSO in PBS per mouse) or vehicle control by intratumoral injection once a week for four weeks. Tumor growth was monitored by bioluminescence imaging every week for six weeks. The bioluminescence intensity was quantified.
To test the effect of the FTO inhibitor on GSC-initiated tumorigenesis, PBT003-grafted mice were treated with the selective FTO inhibitor MA2 intratumorally once a week for four weeks (FIG. 11d). Tumor formation was monitored by bioluminescence xenogen imaging.

[6] = test system: ADAM19, EPHA3, and KLF4 expression in PBT003 cells; test: RT-PCR of oncogene expression in GSCs; type: cell-based, human
Method: RT-PCR: Total RNAs isolated using Trizol reagent (Ambion) were subjected to reverse transcription (RT) performed using the Tetro cDNA synthesis Kit (BioLINE). RT-PCR reactions were performed using SYBR Green Master Mix (Thermo Scientific) on the Step One Plus Real-Time PCR instrument (Applied Biosystems). The primers for RT-PCR include METLL3 (F 5′-TCAGCATCGGAACCAGCAAAG-3′ (SEQ ID NO: 8); R 5′-TCCTGACTGACCTTCTTGCTC-3′ (SEQ ID NO: 9)), METLL14 (F 5′-GTTGGAACATGGATAGCCGC-3′ (SEQ ID NO: 10); R 5′-CAATGCTGTCGGCACTTTCA-3′ (SEQ ID NO: 11)), CD44 (F 5′-TGAGCATCGGATTTGAGACC-3′ (SEQ ID NO: 12); R 5′-TGTCATACTGGGAGGTGTTGG-3′ (SEQ ID NO: 13)), ADAM19 (F 5′-CCTGGATGGACAAGAGGAAG-3′ (SEQ ID NO: 14); R 5′-CTCAGCTTTGAGTGGATGCT-3′ (SEQ ID NO: 15)), EPAH3 (F 5′-GGGCTGGATCTCTTATCCATC-3′ (SEQ ID NO: 16); R 5′-GGACCCAGTTTGTTCTCAGC-3′ (SEQ ID NO: 17)), KLF4 (F 5′-AAGAGTTCCCATCTCAAGGC-3′ (SEQ ID NO: 18); R 5′-CCGTGTGTTTACGGTAGTGC-3′ (SEQ ID NO: 19)), and ACTIN (F 5′-CCGCAAAGACCTGTACGCCAAC-3′ (SEQ ID NO: 20); R 5′-CCAGGGCAGTGATCTCCTTCTG-3′ (SEQ ID NO: 21)). ACTIN was included as the reference gene for normalization. The ΔΔCt method was used for quantification analysis.

FTO = FTO (Homo sapiens, UniProt Q9C0B1); details: Huang et al., 2015; cited from earlier work
FTO, sequence (Q9C0B1 whole entry): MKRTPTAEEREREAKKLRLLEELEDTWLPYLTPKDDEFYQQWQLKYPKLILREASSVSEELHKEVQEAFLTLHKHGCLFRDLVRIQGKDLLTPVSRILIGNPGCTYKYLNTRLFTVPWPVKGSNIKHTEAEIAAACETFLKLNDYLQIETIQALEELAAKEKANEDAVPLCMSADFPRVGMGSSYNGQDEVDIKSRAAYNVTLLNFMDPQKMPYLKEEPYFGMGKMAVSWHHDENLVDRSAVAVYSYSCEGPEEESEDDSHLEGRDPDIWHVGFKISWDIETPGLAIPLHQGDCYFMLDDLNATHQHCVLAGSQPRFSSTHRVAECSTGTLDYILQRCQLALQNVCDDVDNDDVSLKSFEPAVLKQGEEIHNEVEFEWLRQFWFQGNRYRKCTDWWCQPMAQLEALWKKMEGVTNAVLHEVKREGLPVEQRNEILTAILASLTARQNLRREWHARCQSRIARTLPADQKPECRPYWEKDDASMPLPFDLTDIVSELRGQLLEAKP

Q: With `CCOC(=O)c1ccccc1Nc1c(Cl)ccc(C)c1Cl` [MA2, ethyl ester form of meclofenamic acid (MA)] as the compound, how does the “mRNA m^6A level” value (mRNA m^6A level in GSCs) read?
A: substantial increase

Q: And the cell growth (PBT003 cells [1])?
A: dramatic growth inhibitory effect

Q: What about the cell growth (PBT707; PBT707, 40 μM) of the same compound?
A: suppressed the growth

Q: What about the cell growth (PBT707; PBT707, 60 μM and 80 μM) of the same compound?
A: substantial inhibitory effect

Q: What about the cell growth (PBT726; PBT726, 40 μM) of the same compound?
A: suppressed the growth

Q: And the cell growth (PBT726; PBT726, 60 μM and 80 μM)?
A: substantial inhibitory effect

Q: What about the cell growth (PBT111; PBT111, 20 μM and 40 μM) of the same compound?
A: inhibited the growth

Q: And the cell growth (PBT111; PBT111, 60 μM and 80 μM)?
A: substantial inhibitory effect

Q: What about the cell growth ([2]; NSC006, up to 60 μM) of the same compound?
A: no substantial effect

Q: And the cell growth ([2]; NSCs, 80 μM)?
A: Mild effect

Q: What about the cell growth (brain astrocytes; astrocytes, 80 μM) of the same compound?
A: Mild effect

Q: What about the cell growth (brain astrocytes; brain astrocytes, up to 60 μM) of the same compound?
A: no substantial effect

Q: And the cell growth (HeLa cells; 80 μM)?
A: Mild effect

Q: And the cell growth (HeLa cells; up to 60 μM)?
A: no substantial effect

Q: What about the “self-renewal of GSCs (stem cell frequency)” value (GSCs [3]) of the same compound?
A: dramatically inhibited the self-renewal

Q: And the sphere formation rate (GSCs [4])?
A: reversed the effect of elevated sphere formation rate

Q: What about the tumor luciferase activity (PBT003 cells [5]; 4 or 5 weeks after compound treatment) of the same compound?
A: significant decrease

Q: What about the “tumor size by bioluminescence xenogen imaging” value (PBT003 cells [5]; intratumoral, once a week for four weeks) of the same compound?
A: much smaller tumors

Q: What about the survival (PBT003 cells [5]; log-rank test) of the same compound?
A: substantially prolonged survival

Q: What about the “expression of ADAM19, EPHA3, and KLF4” value [6] of the same compound?
A: decreased expression

Q: And the FTO inhibition (FTO)?
A: selective inhibitor of FTO
